System: RANK OE cells (MCF-7^OE, T47D^OE) and parental MCF-7, T47D cells
Experiment: Alamar blue viability assay, RANK OE luminal breast cancer cells vs parental counterparts
Type: cell-based, human
Conditions: RANK OE cells vs parental counterparts; drug alone; 7 days
Protocol: Cells were seeded in 96 well-plates (2-5×10^4 cells/mL), with or without paclitaxel (Y0000698, Sigma), doxorubicin hydrochloride (D2975000, Sigma), palbociclib (PD 0332991 isethionate, PZ0199, Sigma), ribociclib (LEE011 succinate, SC-488174, Santa Cruz), abemaciclib mesylate (LY2835219, S7158, Selleckchem), fulvestrant (S1191, Selleckchem), everolimus (#73122, StemCell Technologies), full length human OPG (SRP3132, Sigma), and OPG-Fc (Amgen). Medium was replaced every 2 days. After 7 days, 1:10 Alamar blue (Invitrogen) was added to each well and fluorescence was measured 2 hours after incubation (excitation 560 nm; emission 590 nm) in an Infinite M200 microplate reader (Tecan).
In particular, RANK OE cells were tested for responsiveness to hormone therapy. Briefly, RANK OE cells were seeded in multi-well plates and exposed to fulvestrant for 7 days.
In this assay, however, RANK OE cells were exposed to a CDK 4/6 inhibitor alone or in combination with an inhibitor of the RANK pathway, in order to test the effect of blocking the RANK pathway in this context. Briefly, RANK OE cells were seeded in multi-well plates and exposed to palbociclib, ribociclib or abemaciclib alone or in combination with OPG-Fc for 7 days. Osteoprotegrin (OPG) is the physiologic soluble decoy receptor for RANK ligand (RANKL), and OPG-Fc is a fusion protein comprising only the four cysteine-rich domains of OPG (D1 to D4) fused with the Fc domain of an IgG1 antibody.
In this study, the CDK4/6 inhibitors palbociclib and ribociclib were exposed to RANK OE cells in combination with fulvestrant or everolimus. This combination therapy was then tested alone or in combination with OPG, an inhibitor of the RANK pathway. In this assay, the full-length OPG protein was used, in contrast to the previous example utilizing OPG-Fc.
To address this question, cell growth in the presence or absence of a CDK4 inhibitor was quantified. Briefly, cells were seeded in 96-well plates and exposed to two different drugs, CDK4 inhibitors, 3-ATA (FIG. 20A) or Cdk4 inhibitor Ill (FIG. 20B) for seven days. Medium was replaced every two days, and viability was assessed by Alamar blue assay. FIG. 20A provides the cell growth quantification in the presence of the CDK4 inhibitor 3-ATA and FIG. 20B provides the cell growth quantification in the presence of another CDK4 inhibitor, Cdk4 Inhibitor Ill. The results are the mean of at least three independent assays, with 4 replicates per assay, and presented as the mean±SEM. p-value was calculated using 2-way ANOVA, *p<0.05, **p<0.01, ***p<0.001.
To answer this question, cell growth in the presence of the pan-CDK inhibitor seliciclib (also known as roscovitine or CYC202) was analyzed. Briefly, cells were seeded in 96-well plates and exposed to different drugs for seven days. Medium was replaced every two days, and viability was assessed by Alamar blue assay.
Cells were seeded in 96 well-plates (2-5×10^4 cells/mL), with or without palbociclib (PD 0332991 isethionate, PZ0199, Sigma), ribociclib (LEE011 succinate, SC-488174, Santa Cruz), abemaciclib mesylate (LY2835219, S7158, Selleckchem), 3-ATA (sc-202414, Santa Cruz), Cdk4 inhibitor Ill (sc-202988, Santa Cruz), seliciclib (S1153, Selleckchem), and OPG-Fc (PL-33324, Amgen). Medium was replaced every 2 days. After 7 days, 1:10 Alamar blue (Invitrogen) was added to each well and fluorescence was measured 2 hours after incubation (excitation 560 nm; emission 590 nm) in an Infinite M200 microplate reader (Tecan).

With `CC(=O)c1c(C)c2cnc(Nc3ccc(N4CCNCC4)cn3)nc2n(C2CCCC2)c1=O` [palbociclib] the “sensitivity of RANK OE cells to the drug (cell viability)” value was “decreased sensitivity”.

— patent US20220195059A1, “Rank Pathway Inhibitors in Combination with CDK Inhibitors” (INSTITUTO DE MEDICINA MOLECULAR JOÃO LOBO ANTUNES, priority 2019, published 2022)
